Assay [1] addresses T1, Diacylglycerol O-acyltransferase 1 (Mus musculus, UniProt Q9Z2A7).
T1 sequence (Q9Z2A7 whole entry): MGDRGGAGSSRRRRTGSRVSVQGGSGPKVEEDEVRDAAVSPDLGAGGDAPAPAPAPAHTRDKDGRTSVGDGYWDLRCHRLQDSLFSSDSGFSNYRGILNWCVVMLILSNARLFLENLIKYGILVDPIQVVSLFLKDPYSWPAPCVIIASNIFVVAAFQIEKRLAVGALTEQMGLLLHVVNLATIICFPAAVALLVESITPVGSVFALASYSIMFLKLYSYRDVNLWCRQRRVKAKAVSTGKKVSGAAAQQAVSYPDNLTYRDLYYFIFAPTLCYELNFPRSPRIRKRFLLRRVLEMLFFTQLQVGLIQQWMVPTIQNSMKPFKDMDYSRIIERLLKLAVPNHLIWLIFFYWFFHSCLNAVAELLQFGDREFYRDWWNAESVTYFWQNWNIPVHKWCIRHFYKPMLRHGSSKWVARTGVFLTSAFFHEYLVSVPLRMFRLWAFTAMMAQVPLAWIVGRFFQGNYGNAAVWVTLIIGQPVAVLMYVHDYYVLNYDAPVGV
The experiment in a line: Inhibition Assay: Â Assay buffer [20 mM HEPES (pH 7.4), 100 mM MgCl2 and 0.04% bovine serum albumin (BSA)] containing 500 uM of enzyme substrate (didecanoyl glycerol) and 7.5 uM radiolabeled acyl-CoA substrate ([14C]decanoyl-CoA) was added to each well of a phospholipid-coated radiometric assay plate. The assay is classed as microsomes, Liver.

Assay [2] concerns the target T2, Diacylglycerol O-acyltransferase 1 (Homo sapiens, UniProt O75907).
T2 sequence (O75907 whole entry): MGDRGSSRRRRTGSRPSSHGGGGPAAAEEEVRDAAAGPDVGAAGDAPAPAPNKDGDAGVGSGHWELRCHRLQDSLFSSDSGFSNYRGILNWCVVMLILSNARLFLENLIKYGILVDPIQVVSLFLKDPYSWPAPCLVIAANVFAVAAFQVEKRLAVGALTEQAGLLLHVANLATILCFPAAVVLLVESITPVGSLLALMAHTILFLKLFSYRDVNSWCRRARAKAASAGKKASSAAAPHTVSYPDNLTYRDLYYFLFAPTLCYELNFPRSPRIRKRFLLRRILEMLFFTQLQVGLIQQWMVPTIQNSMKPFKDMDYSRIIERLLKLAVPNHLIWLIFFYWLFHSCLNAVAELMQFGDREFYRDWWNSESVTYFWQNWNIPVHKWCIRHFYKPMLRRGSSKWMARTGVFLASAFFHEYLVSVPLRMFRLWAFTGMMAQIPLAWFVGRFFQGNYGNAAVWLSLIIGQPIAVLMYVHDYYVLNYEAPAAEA
The assay is classed as tissue-based, Liver.

A value given as a limit tells only on which side of the number the result lay.

As to `O=C(O)C[C@H]1CC[C@H](c2ccc(-c3cn4cc(C(=O)NCc5ccc(F)c(Cl)c5)nc4s3)cc2)CC1`, the half-inhibitory concentration (IC50) in assay [1] was less than 25 nM; in assay [2], less than 10 nM.

Regarding `O=C(O)C[C@H]1CC[C@H](c2ccc(-c3cn4cc(C(=O)NCc5c(F)cc(Cl)cc5F)nc4s3)cc2)CC1`, the IC50 in assay [1] and in assay [2] was less than 10 nM in each case.

Take `O=C(O)CC1CCC(c2ccc(-c3cn4cc(C(=O)Nc5ccc(F)c(Cl)c5)nc4s3)cc2)CC1` (stereo unspecified): the concentration for half-maximal inhibition (IC50) is less than 100 nM in assay [1] and less than 10 nM in assay [2].

For the compound `O=C(O)CC1CCC(c2ccc(-c3ccc4nc(C(=O)NCc5c(Cl)cccc5C(F)(F)F)cn4c3)cc2)CC1` (stereo unspecified), the IC50 in assay [1] and in assay [2] was less than 10 nM each time.

Take `O=C(O)CC1CCC(c2ccc(-c3ccc4nc(C(=O)NCc5c(Cl)cccc5Cl)cn4c3)cc2)CC1` (stereo unspecified): the IC50 was less than 50 nM in assay [1] and less than 10 nM in assay [2].

Regarding `O=C(O)C[C@H]1CC[C@H](c2ccc(-c3cn4cc(C(=O)NCc5c(F)cccc5F)nc4s3)cc2)CC1`, the half-inhibitory concentration (IC50) in assay [1] and in assay [2] was less than 25 nM in each case.

With `O=C(O)CC1CCC(c2ccc(-c3ccc4nc(C(=O)NCc5c(F)cccc5F)cn4c3)cc2)CC1` (stereo unspecified), the IC50 was less than 75 nM in assay [1] and less than 25 nM in assay [2].

As for `O=C(O)C[C@H]1CC[C@H](c2ccc(-c3cn4cc(C(=O)NCc5c(Cl)cccc5Cl)nc4s3)cc2)CC1`, the concentration for half-maximal inhibition (IC50) in assay [1] and in assay [2] was less than 10 nM in each case.

On to `O=C(O)CC1CCC(c2ccc(-c3ccc4nc(C(=O)NCc5c(F)cccc5Cl)cn4c3)cc2)CC1` (stereo unspecified), for which the IC50 in assay [1] was less than 50 nM; in assay [2] it was less than 10 nM.

For `O=C(O)CC1CCC(c2ccc(-c3ccc4nc(C(=O)NC5(c6cc(F)ccc6F)CC5)cn4c3)cc2)CC1` (stereo unspecified), the IC50 in assay [1] and in assay [2] was less than 10 nM each time.

`O=C(O)C[C@H]1CC[C@H](c2ccc(-c3cn4cc(C(=O)Nc5cccc(Cl)c5)nc4s3)cc2)CC1`: the half-maximal inhibitory concentration (IC50) in assay [1] is less than 150 nM; in assay [2] it was less than 10 nM.

With `O=C(O)C[C@H]1CC[C@H](c2ccc(-c3cn4cc(C(=O)NCc5c(F)cccc5Cl)nc4s3)cc2)CC1`, the figures for the IC50 in assay [1] and in assay [2] were less than 25 nM and less than 10 nM, respectively.

For the compound `O=C(O)C[C@H]1CC[C@H](c2ccc(-c3cn4cc(C(=O)NCc5ccc(OC(F)(F)F)c(Cl)c5)nc4s3)cc2)CC1`, the IC50 in assay [1] was less than 200 nM; in assay [2] it was less than 225 nM.

Source of the values: ChEMBL document CHEMBL3886557, “Compounds as inhibitors of diacylglycerol O-acyltransferase type 1 enzyme” (2016).
